The target in the experiment is T1, E1 and His-E2 Ubch10 (Homo sapiens, UniProt P22314).
T1 construct: host or cells: E. coli (His-Ubch10); Sf9 insect cells (E1)
T1 sequence (P22314 1-1058): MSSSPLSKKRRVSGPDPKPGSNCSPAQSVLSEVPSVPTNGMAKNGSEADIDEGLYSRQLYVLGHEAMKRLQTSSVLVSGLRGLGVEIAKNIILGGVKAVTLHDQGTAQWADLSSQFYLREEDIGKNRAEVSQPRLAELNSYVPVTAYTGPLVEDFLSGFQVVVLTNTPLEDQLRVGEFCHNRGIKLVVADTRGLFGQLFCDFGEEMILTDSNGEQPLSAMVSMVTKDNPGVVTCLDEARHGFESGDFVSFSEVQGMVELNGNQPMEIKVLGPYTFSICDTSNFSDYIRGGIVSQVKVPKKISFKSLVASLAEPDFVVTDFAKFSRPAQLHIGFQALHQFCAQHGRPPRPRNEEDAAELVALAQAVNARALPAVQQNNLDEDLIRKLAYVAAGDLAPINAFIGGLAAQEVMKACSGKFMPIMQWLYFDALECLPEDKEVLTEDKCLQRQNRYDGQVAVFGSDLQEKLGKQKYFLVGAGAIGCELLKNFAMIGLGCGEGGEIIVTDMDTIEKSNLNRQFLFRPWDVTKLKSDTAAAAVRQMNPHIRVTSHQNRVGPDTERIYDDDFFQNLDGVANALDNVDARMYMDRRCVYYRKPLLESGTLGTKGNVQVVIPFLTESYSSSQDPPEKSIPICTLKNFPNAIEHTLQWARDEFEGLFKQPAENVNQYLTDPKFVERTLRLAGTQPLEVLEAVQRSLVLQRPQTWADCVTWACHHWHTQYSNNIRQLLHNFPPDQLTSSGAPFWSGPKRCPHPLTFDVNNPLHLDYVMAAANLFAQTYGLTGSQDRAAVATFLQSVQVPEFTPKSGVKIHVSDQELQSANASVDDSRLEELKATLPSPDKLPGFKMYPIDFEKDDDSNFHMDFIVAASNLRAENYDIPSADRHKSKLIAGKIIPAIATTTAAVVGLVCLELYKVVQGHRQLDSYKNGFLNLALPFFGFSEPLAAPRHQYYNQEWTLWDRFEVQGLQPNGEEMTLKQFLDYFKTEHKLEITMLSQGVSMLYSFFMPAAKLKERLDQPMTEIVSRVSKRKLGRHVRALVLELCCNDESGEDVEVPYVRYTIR
The experiment can be described thus: E1 to E2 transfer assay, His-E2 Ubch10, 1.0 μM ATP (low ATP). Type of experiment: biochemical. The settings on record: Table 5, ATP inhibition properties; inhibition measured using IC50 values. An excerpt:
Biological assays for determining the transfer of ubiquitin from the E1 activating agent to the E2 conjugating agent are described in U.S. patent application Ser. Nos. 09/542,497 and 09/826,312 as well as in the PCT Application WO 01/75145, all of which are incorporated by reference in their entirety. The following assay example illustrates one way by which the ubiquitin ligase inhibitory activity of the compounds of the invention can be assayed. This assay example is not meant to limit in any way the use of the compounds of the invention as ubiquitin ligase inhibitors.
The attachment of a ubiquitin moiety to the E2 conjugating agent was assayed using Flag-ubiquitin that was purified from E. coli, E2 Ubch10 that was purified as a His-Ubch10 from E. coli, and E1 that was purified from Sf9 insect cells (Affiniti Research Products, Exeter, U.K.). The wells of a Nickel-substrate 96-well plate (Pierce Chemical) were blocked with 100 μl of 1% casein/phosphate buffered saline (PBS) for 1 hour at room temperature. The blocked Nickel-substrate plate was then washed three times with 200 μl of PBST (0.1% Tween-20 in PBS). Subsequently, Flag-ubiquitin reaction solution was added to each well so that the final concentration was 62.5 mM Tris pH 7.5, […], 0.75 mM DTT, 1.0 μM ATP (low ATP), and 100 ng Flag-ubiquitin. The final reaction solution volume was fixed to 80 μl with Millipore-filtered water. To this was added the following: a ubiquitin agent inhibitor in 10 μl of DMSO, 10 μl of E1 and His-E2 Ubch10 in 20 mM Tris buffer, pH 7.5, and 5% glycerol so that there was 10 ng/well of E1 and 20 ng/well of His-E2 Ubch10. The reaction was then allowed to proceed at room temperature for 1 hour.
After 1 hour, the wells were washed three times with 200 μl of PBST and the amount of E2-ubiquitin complex was measured. For measuring the amount of the E2-ubiquitin complex, 100 μl of Mouse anti-flag diluted 1:10,000 (Sigma Aldrich Fluka Chemicals, St. Louis, Mo.) and anti-mouse HRP diluted 1:15,000 (Jackson Immunoresearch labs, West Grove, Pa.) in PBST were added to each well and allowed to incubate at room temperature for another hour. The wells were then washed three times with 200 μl of PBST and 100 μl of luminol substrate (⅕ dilution) was added. The luminescence of each well was then measured using a […] to calculate the amount of E2-ubiquitin complex. This procedure was repeated using His-E2 Ubch5C instead of His-E2 Ubch10.
The table below illustrates the inhibitory properties of the pharmaceutical compostions of the invention comprising the compounds listed in the table using the assays described above. Inhibition was measured using IC50 values.

`COc1ccc2nc(NC(=O)Cc3ccccc3)sc2c1` [Compound 43, N-(6-methoxybenzo[d]thiazol-2-yl)-2-phenylacetamide]: the UBC10 result is given as “−− (−− indicates marginal or no inhibition detected with this assay)”. The entry for `COc1ccc2nc(NC(=O)C3CCNCC3)sc2c1` [Compound 44, N-(6-methoxybenzo[d]thiazol-2-yl)piperidine-4-carboxamide] is “−− (−− indicates marginal or no inhibition detected with this assay)”.

For the compound `CCCC1CCC(C(=O)Nc2nc3ccc(OC)cc3s2)CC1` (stereo not shown) [Compound 45, N-(6-methoxybenzo[d]thiazol-2-yl)-4-propylcyclohexanecarboxamide], the UBC10 result is given as “++ (++ indicates inhibition at 50 μM or or less)”. The entry for `COc1ccc2nc(NC(=O)C3CCC3)sc2c1` [Compound 46, N-(6-methoxybenzo[d]thiazol-2-yl)cyclobutanecarboxamide] is “++ (++ indicates inhibition at 50 μM or or less)”; for `COc1ccc2nc(NC(=O)C(C)C)sc2c1` [Compound 47, N-(6-methoxybenzo[d]thiazol-2-yl)isobutyramide] it is “−− (−− indicates marginal or no inhibition detected with this assay)”. The entry for `COc1ccc2nc(NC(=O)C(C)(C)C)sc2c1` [Compound 48, N-(6-methoxybenzo[d]thiazol-2-yl)pivalamide] is “++ (++ indicates inhibition at 50 μM or or less)”. The entry for `COc1ccc2nc(NC(=O)c3cccs3)sc2c1` [Compound 49, N-(6-methoxybenzo[d]thiazol-2-yl)thiophene-2-carboxamide] is “++ (++ indicates inhibition at 50 μM or or less)”; for `COc1ccc2nc(NC(=O)c3ccc([N+](=O)[O-])s3)sc2c1` [Compound 50, N-(6-methoxybenzo[d]thiazol-2-yl)-5-nitrothiophene-2-carboxamide] it is “−− (−− indicates marginal or no inhibition detected with this assay)”. Take `COc1ccc2nc(N3C(=O)c4ccccc4C3=O)sc2c1` [Compound 51, 2-(6-methoxybenzo[d]thiazol-2-yl)isoindoline-1,3-dione]: the UBC10 entry is “++ (++ indicates inhibition at 50 μM or or less)”.

For `COc1ccc2nc(NC(=O)c3ccncc3)sc2c1` [Compound 52, N-(6-methoxybenzo[d]thiazol-2-yl)isonicotinamide], the UBC10 result was “−− (−− indicates marginal or no inhibition detected with this assay)”. The entry for `COc1ccc2nc(NC(=O)c3cccnc3)sc2c1` [Compound 53, N-(6-methoxybenzo[d]thiazol-2-yl)nicotinamide] is “++ (++ indicates inhibition at 50 μM or or less)”; for `COc1ccc2nc(NC(=O)c3cccc([N+](=O)[O-])c3)sc2c1` [Compound 54, N-(6-methoxybenzo[d]thiazol-2-yl)-3-nitrobenzamide] it is “−− (−− indicates marginal or no inhibition detected with this assay)”; for `COc1ccc2nc(NC(=O)c3cccc4ccccc34)sc2c1` [Compound 55, N-(6-methoxybenzo[d]thiazol-2-yl)-1-naphthamide] it is “−− (−− indicates marginal or no inhibition detected with this assay)”. The entry for `COc1ccc2nc(NC(=O)c3cccc(C)c3)sc2c1` [Compound 56, N-(6-methoxybenzo[d]thiazol-2-yl)-3-methylbenzamide] is “++ (++ indicates inhibition at 50 μM or or less)”; for `COc1ccc2nc(NC(=O)c3ccc(F)cc3)sc2c1` [Compound 57, 4-fluoro-N-(6-methoxybenzo[d]thiazol-2-yl)benzamide] it is “++ (++ indicates inhibition at 50 μM or or less)”.

For the compound `COc1ccc2nc(NC(=O)c3cccc(F)c3)sc2c1` [Compound 58, 3-fluoro-N-(6-methoxybenzo[d]thiazol-2-yl)benzamide], the UBC10 entry was “++ (++ indicates inhibition at 50 μM or or less)”.

With `COc1ccc2nc(NC(=O)c3ccccc3F)sc2c1` [Compound 59, 2-fluoro-N-(6-methoxybenzo[d]thiazol-2-yl)benzamide], the UBC10 entry is on record as “++ (++ indicates inhibition at 50 μM or or less)”.

For `COc1cccc(C(=O)Nc2nc3ccc(OC)cc3s2)c1` [Compound 60, 3-methoxy-N-(6-methoxybenzo[d]thiazol-2-yl)benzamide], the UBC10 result is on record as “++ (++ indicates inhibition at 50 μM or or less)”. The entry for `COc1ccc2nc(NC(=O)c3ccccc3OC)sc2c1` [Compound 61, 2-methoxy-N-(6-methoxybenzo[d]thiazol-2-yl)benzamide] is “−− (−− indicates marginal or no inhibition detected with this assay)”. The entry for `Cc1ccc(C(=O)Nc2nc3ccc(Cl)cc3s2)cc1` [Compound 70, N-(6-chlorobenzo[d]thiazol-2-yl)-4-methylbenzamide] is “−− (−− indicates marginal or no inhibition detected with this assay)”; for `Cc1ccc(C(=O)Nc2nc3c(C)cccc3s2)cc1` [Compound 71, 4-methyl-N-(4-methylbenzo[d]thiazol-2-yl)benzamide] it is “−− (−− indicates marginal or no inhibition detected with this assay)”. The entry for `CC(=O)Nc1ccc2nc(NC(=O)c3ccc(C)cc3)sc2c1` [Compound 72, N-(6-acetamidobenzo[d]thiazol-2-yl)-4-methylbenzamide] is “−− (−− indicates marginal or no inhibition detected with this assay)”; for `Cc1ccc(C(=O)Nc2nc3ccc(S(N)(=O)=O)cc3s2)cc1` [Compound 73, N-[6-(aminosulfonyl)-1,3-benzothiazol-2-yl]-4-methylbenzamide] it is “−− (−− indicates marginal or no inhibition detected with this assay)”. On to `COC(=O)c1ccc(C(=O)Nc2nc3ccc(N)cc3s2)cc1` [Compound 74, methyl 4-((6-aminobenzo[d]thiazol-2-yl)carbamoyl)benzoate], for which the UBC10 result is on record as “−− (−− indicates marginal or no inhibition detected with this assay)”.

Consider `Cc1ccc(C(=O)Nc2nc3ccc(OC(F)(F)F)cc3s2)cc1` [Compound 75, 4-methyl-N-(6-(trifluoromethoxy)benzo[d]thiazol-2-yl)benzamide], for which the UBC10 entry is given as “−− (−− indicates marginal or no inhibition detected with this assay)”.

In the case of `Cc1ccc(C(=O)Nc2nc3c(C)cccc3s2)cc1C` [Compound 76, 3,4-dimethyl-N-(4-methylbenzo[d]thiazol-2-yl)benzamide], the UBC10 entry is “−− (−− indicates marginal or no inhibition detected with this assay)”. For the compound `CCc1ccc(C(=O)Nc2nc3ccc(OC)cc3s2)cc1` [Compound 77, 4-ethyl-N-(6-methyoxybenzo[d]thiazol-2-yl)benzamide], the UBC10 result is given as “++ (++ indicates inhibition at 50 μM or or less)”.

Take `CCc1ccc(C(=O)Nc2nc3ccc(C)cc3s2)cc1` [Compound 78, 4-ethyl-N-(6-methylbenzo[d]thiazol-2-yl)benzamide]: the UBC10 entry is reported as “−− (−− indicates marginal or no inhibition detected with this assay)”.

The record behind these values is patent US20080039629A1, “Benzothniazole compositions and their use as ubiquition ligation inhibitors” (RIGEL PHARMACEUTICALS, INC., priority 2003, published 2008).
